Source: patent publication US11311522B1 (Cavion, Inc., priority 2018, dated 2022)

How the values were obtained:
[1] = molecular target: T1, hERG (Homo sapiens, UniProt Q12809); test: hERG whole-cell voltage-clamp (CHO-K1 cells); assay type: cell-based; conditions: hERG current
T1 construct: expressed in transfected cells; host or cells: CHO-K1

[2] = test system: T2, CYP3A4, CYP2C8, CYP2C9, CYP2D6, CYP1A2, CYP2C19, CYP2B6; test: CYP inhibition in human liver microsomes; assay type: in vitro ADME; conditions: human, human liver microsomes
T2 construct: other: human liver microsomes; other: human microsomes

[3] = test system: T3, major CYP isoforms (CYP1A2, CYP3A4, CYP2C8, CYP2C9, CYP2C19, CYP2D6, CYP2B6); test: CYP inhibition in human liver microsomes; assay type: in vitro ADME; conditions: human liver microsomes; human microsomes
T3 construct: other: human liver microsomes; other: human microsomes

[4] = doses up to 20 μM
[5] = 4-week oral toxicology in rats (with FOB); conditions: for NOAEL at 4 weeks / AUC / Cmax: rat; for NOAEL at 4 weeks: in vivo; for AUC / Cmax: plasma, Day 28, mean (SD)
[6] = 7-day dose-range-finding toxicology in female rats
[7] = test system: T4, guinea pig adenosine transporter; test: Adenosine transporter inhibition; assay type: biochemical; conditions: 10 μM
T4 construct: other: 10 μM

[8] = Sprague-Dawley rat, 30, 300, or 2000 mg/kg/day oral gavage for 4 weeks

T1 sequence (Q12809 whole entry): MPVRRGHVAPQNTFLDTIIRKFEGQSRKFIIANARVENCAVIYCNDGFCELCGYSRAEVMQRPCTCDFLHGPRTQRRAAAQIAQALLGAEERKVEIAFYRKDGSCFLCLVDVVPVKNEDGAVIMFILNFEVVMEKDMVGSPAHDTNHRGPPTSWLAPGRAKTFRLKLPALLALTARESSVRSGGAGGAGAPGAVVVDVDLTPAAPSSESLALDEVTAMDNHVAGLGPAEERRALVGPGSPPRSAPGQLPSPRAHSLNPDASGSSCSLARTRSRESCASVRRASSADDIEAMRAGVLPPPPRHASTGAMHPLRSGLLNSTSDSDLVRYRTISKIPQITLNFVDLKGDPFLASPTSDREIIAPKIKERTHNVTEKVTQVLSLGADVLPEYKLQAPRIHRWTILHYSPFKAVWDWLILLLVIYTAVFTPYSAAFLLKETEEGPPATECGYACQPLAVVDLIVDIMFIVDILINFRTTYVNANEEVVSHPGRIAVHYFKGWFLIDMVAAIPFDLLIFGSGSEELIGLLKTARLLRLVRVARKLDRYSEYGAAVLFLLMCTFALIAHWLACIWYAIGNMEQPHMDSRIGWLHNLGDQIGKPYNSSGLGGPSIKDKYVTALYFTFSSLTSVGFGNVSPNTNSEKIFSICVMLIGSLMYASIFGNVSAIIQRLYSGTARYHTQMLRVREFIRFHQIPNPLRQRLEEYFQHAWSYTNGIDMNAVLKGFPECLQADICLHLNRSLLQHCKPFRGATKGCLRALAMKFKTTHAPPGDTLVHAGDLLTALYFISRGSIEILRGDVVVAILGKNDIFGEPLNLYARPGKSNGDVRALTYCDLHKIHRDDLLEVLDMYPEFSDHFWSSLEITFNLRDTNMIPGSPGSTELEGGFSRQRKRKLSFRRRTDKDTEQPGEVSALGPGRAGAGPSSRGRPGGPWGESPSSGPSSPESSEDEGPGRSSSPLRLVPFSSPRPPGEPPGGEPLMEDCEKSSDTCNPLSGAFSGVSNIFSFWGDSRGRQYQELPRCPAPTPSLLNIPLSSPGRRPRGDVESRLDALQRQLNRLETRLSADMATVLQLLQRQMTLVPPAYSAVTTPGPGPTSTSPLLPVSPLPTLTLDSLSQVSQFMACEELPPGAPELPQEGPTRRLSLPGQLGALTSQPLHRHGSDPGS

Q: For `CC(C)c1ccc(CC(=O)N[C@H](C)c2ccc(OCC(F)(F)F)cn2)cc1` [CX-8998], which IC50 [1] is on record?
A: 21 µM

Q: What about the IC20 ([1]; human, CHO-K1 cells expressing hERG) of the same compound?
A: 4 µM

Q: And the IC50 [2]?
A: 20 to 25 µM

Q: What about the IC50 [3] of the same compound?
A: > 25 µM

Q: What about the “Alkaline elution assay result” value [4] of the same compound?
A: negative

Q: What about the FOB findings [5, 8] of the same compound?
A: non-adverse FOB changes were also

Q: What about the “female reproductive organ findings (extended diestrus)” value [5, 8] of the same compound?
A: Reversible changes

Q: And the NOEL ([5]; both sexes)?
A: < 30 mg/kg/day

Q: What about the NOAEL at 4 weeks ([5]; both, Sprague-Dawley, po) of the same compound?
A: 30 mg/kg

Q: What about the “LOEL for the FOB” value ([5]; female rats, Day 1) of the same compound?
A: 30 mg/kg/day

Q: What about the NOAEL at 4 weeks ([5]; female, oral) of the same compound?
A: < 30 mg/kg/day

Q: What about the AUC ([5]; female, po, 300 mg/kg/day, AUC24, Female rats, 300 mg/kg/day oral gavage) of the same compound?
A: 438 µM·h

Q: What about the Cmax ([5]; female, po, 300 mg/kg/day, Female rats, 300 mg/kg/day oral gavage) of the same compound?
A: 28.3 µM

Q: What about the Cmax ([5]; female, po, 2000 mg/kg/day, Female rats, 2000 mg/kg/day oral gavage) of the same compound?
A: 33.5 µM

Q: And the NOAEL at 4 weeks ([5]; male, oral)?
A: 30 mg/kg/day

Q: What about the AUC ([5]; male, po, 30 mg/kg/day, AUC24, Male rats, 30 mg/kg/day oral gavage) of the same compound?
A: 35.1 µM·h

Q: And the Cmax ([5]; male, po, 300 mg/kg/day, Male rats, 300 mg/kg/day oral gavage)?
A: 26.1 µM

Q: What about the AUC ([5]; male, po, 2000 mg/kg/day, AUC24, Male rats, 2000 mg/kg/day oral gavage) of the same compound?
A: 467 µM·h

Q: What about the Cmax ([5]; male, po, 2000 mg/kg/day, Male rats, 2000 mg/kg/day oral gavage) of the same compound?
A: 28.9 µM

Q: And the NOEL ([6]; Sprague-Dawley rat, 7-day exploratory toxicity, oral gavage)?
A: 500 mg/kg/day

Q: And the “findings indicative of dose-limiting toxicity” value ([6]; Sprague-Dawley rat, 10, 100, or 500 mg/kg/day oral gavage for 7 days)?
A: No findings

Q: With `C=C(C)c1ccc(CC(=O)N[C@H](C)c2ccc(OCC(F)(F)F)cn2)cc1` [M01] as the compound, how does the Inhibition [7] read?
A: 79%
